Source: patent US20240166683A1, “CHEMICAL TOOLS FOR RNA 3D STRUCTURE DETERMINATION IN VIVO” (UNIVERSITY OF SOUTHERN CALIFORNIA, priority 2022, published 2024)

Columns and labels:
[1] = test system: model RNA 1; assay: In vitro crosslinking of model RNA 1 duplex, measured by polyacrylamide electrophoresis; type: biochemical; details: 100 mM activated dicarboxylic acid, 10 μM model RNA 1, MOPS pH 7.5, 4 h at room temperature, PAGE
Description: All experiments were performed in triplicate.
Source data are provided as a Source Data file.

[2] = Hydrolysis in borate buffer/DMSO at pH 10.0, monitored by 1H NMR; type: physicochemical
From the text: Reversing 2′-hydroxyl crosslinking under mild alkaline conditions without RNA damage. Reversal of the crosslinks is necessary for subsequent sequence analysis. We hypothesized that the lower stability of the 2′-acylation products relative to the phosphodiester bonds could allow selective crosslink reversal without causing RNA chain breaks. To test this, we first analyzed the rate of phosphodiester cleavage in a model RNA dinucleotide ApA (FIG. 1f). We compared it to the methyl ester of dipicolinic acid 2 (FIG. 1g), a simple ester derivative of the SHARC reagent DPI. The two compounds were incubated in a 3:1 mixture of 100 mM borate buffer and DMSO at pH 10.0, and the stability was monitored over time by ^1H NMR (FIG. 1h). […] In contrast, compound 2 was fully hydrolyzed after ˜120 min, with a rate constant of 3.5*10^−4 (FIG. 1g). From this we concluded that the ˜1000-fold difference in rate constant should provide sufficient opportunity to selectively reverse the crosslinks under mild alkaline conditions without RNA damage.
(§1) a, Minimal and maximal possible lengths between the crosslinked 2′ oxygen groups in RNA, estimated in PyMOL. Hydroxyl groups are represented by the green oxygen atoms. […] The three lanes represent triplicate experiments. c, Reaction scheme of hydrolysis reaction of DPI. d, Hydrolysis of DPI in phosphate buffer pH 7.4 analyzed by NMR spectroscopy over time. e, Formation of hydrolyzed DPI products over time. After ˜30 min all DPI has been hydrolyzed. f, Hydrolysis of ApA in 100 mM borate buffer pH 10.0 analyzed by NMR spectroscopy over time. g, Formation of hydrolyzed ApA products over time, based on quantification of panel f. […] The three lanes represent triplicate experiments. i, An increase in crosslink reversal (=decrease in crosslinked RNA) is observed at increased pH and temperature, based on quantification of gel pictures in panel h. […]

[3] = Hydrolysis of the acylating reagent at physiological pH, measured by NMR; type: physicochemical
Description: We activated a set of eight dicarboxylic acids with diverse linker lengths and chemical properties (FIG. 1e). The efficiency of crosslinking RNA 1 was measured by polyacrylamide electrophoresis (FIG. 1e). […] This can be potentially explained by the inductive effect of the beta oxygen that substantially increases the reactivity of the activated ester, making it more susceptible to hydrolysis.
as §1

[4] = test system: HEK293 cells; assay: In-cell SHARC crosslinking, recovery of crosslinked RNA fragments from DD2D gel; type: cell-based, human; details: HEK293 cells, 5, 12.5, or 25 mM DPI, RNase III fragmentation
Description: SHARC-exo accurately measures static and dynamic spatial distances in RNA in cells. To test SHARC-exo, we first crosslinked HEK293 cells with DPI, fragmented RNA with RNase III, and isolated the crosslinked fragments using the DD2D gel method. We recovered 1-2% RNA fragments as crosslinked using 5, 12.5, or 25 mM DPI. We sequenced the SHARC-exo libraries and observed 3.3-14.5% of the reads are gapped, similar to PARIS. Crosslinked reads are highly reproducible at different DPI concentrations.
In vivo crosslinking. Hela and HEK293T cells with 80% confluency in a 10 cm dish were washed twice with 1× phosphate-buffered saline (PBS). […]
a, RNase R reduces arm length in PARIS-exo. b, RNase R trimming leads to enrichment of U at the 5th nucleotide from the 3′ end. c-e, An example of precise crosslink site identification using PARIS-exo. c, vertical lines indicate the 3′ ends (median) from PARIS and PARIS-exo reads. d, The PARIS-exo derived 3′ ends and crosslinking sites are mapped to the H79 and ES31 of human 28S secondary structure. e, cryo-EM structure of H79 and ES31 (PDB: 4V6X). f, HEK293 cells are crosslinked with DPI at different concentrations. […] The smear above the diagonal represents crosslinked RNA. h, Quantification of the recovery of crosslinked RNA fragments from the DD2D gel system (replicates n=9, 16 and 4 for the 3 conditions, respectively). […]

[5] = 3:1 100 mM borate buffer/DMSO, pH 10.0, 5 mM starting concentration

O=C(COCC(=O)n1ccnc1)n1ccnc1 [Activated diglycolic acid]
crosslinking efficiency of RNA 1 [1]: 27%

COC(=O)c1cccc(C(=O)OC)n1 [compound 2, methyl ester of dipicolinic acid]
rate constant of hydrolysis [2, 5]: 3.5*10^−4
time to full hydrolysis [2, 5]: ~120 min
difference in rate constant, compound 2 vs ApA ([2]; pH 10.0): ~1000 fold

O=C(c1cccc(C(=O)n2ccnc2)n1)n1ccnc1 [DPI, dipicolinic acid imidazolide]
time after which all DPI has been hydrolyzed ([3]; phosphate buffer pH 7.4, NMR): ~30 min
time after which 50% was hydrolyzed ([3]; physiological pH 7.4, room temperature, NMR): 5 min
RNA fragments recovered as crosslinked [4]: 1-2%

O=C(CCCC(=O)n1ccnc1)n1ccnc1 [Activated glutaric acid]
crosslinking efficiency of RNA 1 [1]: 94%
